Among the test systems are SF-268; CCRF-CEM; OVCAR-5; NCI-H23; COLO 205; SN12C; Malme-3M; SNB-19; SK-OV-3; SF-295; HCC 2998; NCI-H226; SNB-75; SK-MEL-5; UO-31; UACC-257; MDA-MB-231; MDA-N; A498.
What all share (assay): NCI-60 cell line screen, 48 h

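Assay format: 96-well plates, 48-hour exposure. GI50 = concentration required for 50% inhibition of growth.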 Active and inactive are the calls of the source. No stated cut-off is given here; in the data, active = GI50 up to about 1.1 µM and inactive = higher. Where only a bound is given, the exact number is not on record here.

As to `C/C(=C\CO)CC/C=C(\C)CNc1c(F)c(F)c(F)c(F)c1F`, the GI50 with SF-268 is 23.1 µM (inactive); in the experiment with CCRF-CEM it was 28.1 µM (inactive); in the experiment with OVCAR-5, 36.5 µM (inactive); in the experiment on NCI-H23, > 100 µM (inactive); in the experiment with COLO 205, 27.5 µM (inactive); in the experiment with SN12C, 20.2 µM (inactive). Moreover, the GI50 in the experiment with Malme-3M is 27.4 µM (inactive); in the experiment on SNB-19, 27.7 µM (inactive); in the experiment on SK-OV-3, 63.8 µM (inactive); with SF-295, 22.4 µM (inactive); in the experiment on HCC 2998 it was 24.7 µM (inactive); in the experiment with NCI-H226 it was 28.1 µM (inactive). Also, the GI50 is 28.1 µM (inactive) in the experiment on SNB-75; 15.8 µM (inactive) in the experiment on SK-MEL-5; 35.6 µM (inactive) in the experiment on UO-31; 21.3 µM (inactive) in the experiment on UACC-257; 19 µM (inactive) in the experiment on MDA-MB-231.

On to `COc1cc(NC(C)CCCN)c2nccc(C)c2c1` (stereo not given), for which the GI50 in the experiment with SF-268 was 24.3 µM (inactive); with OVCAR-5 it was 96.4 µM (inactive); in the experiment with NCI-H23, 38 µM (inactive); with COLO 205, 14.3 µM (inactive); in the experiment with SN12C, 31.4 µM (inactive); in the experiment on Malme-3M, 20 µM (inactive). Besides, the GI50 in the experiment with SNB-19 was 27 µM (inactive); in the experiment on SK-OV-3, 28.4 µM (inactive); with SF-295, 15.3 µM (inactive); in the experiment on HCC 2998, 19.9 µM (inactive); in the experiment on MDA-N, 18.9 µM (inactive); with SNB-75, 14.2 µM (inactive). In addition, the GI50 in the experiment with SK-MEL-5 was 25.7 µM (inactive); with UO-31, 15.6 µM (inactive); in the experiment on MDA-MB-231 it was > 10 µM (inactive).

Regarding `COc1cc(C(=O)O[C@H]2CCC3CCC2N3C)cc(OC)c1OC` (stereo not given in full), the GI50 in the experiment with SF-268, in the experiment on CCRF-CEM, in the experiment with OVCAR-5, in the experiment with NCI-H23, in the experiment on COLO 205 and in the experiment on SN12C was > 100 µM (inactive) each time. Moreover, the GI50 in the experiment with Malme-3M, in the experiment with SNB-19, with SK-OV-3, in the experiment with SF-295, with HCC 2998 and in the experiment on NCI-H226 was > 100 µM (inactive) throughout. For the same compound, the GI50 is 58.9 µM (inactive) with SNB-75; > 100 µM (inactive) with SK-MEL-5; 43.2 µM (inactive) with UO-31; > 100 µM (inactive) with UACC-257; 36.3 µM (inactive) in the experiment with A498; > 100 µM (inactive) in the experiment on MDA-MB-231.

On to `O=C(NCP(=O)(Oc1ccccc1)Oc1ccccc1)OCc1ccccc1`, for which the GI50 with SF-268, in the experiment on CCRF-CEM, in the experiment on OVCAR-5, in the experiment on NCI-H23, with COLO 205 and in the experiment with SN12C was > 100 µM (inactive) each time. The GI50 was 77.6 µM (inactive) in the experiment on Malme-3M; > 100 µM (inactive) in the experiment on SNB-19; 33.1 µM (inactive) in the experiment on SK-OV-3; 42.2 µM (inactive) in the experiment with SF-295; > 100 µM (inactive) with NCI-H226; 32 µM (inactive) in the experiment on SNB-75. The GI50 with SK-MEL-5, in the experiment with UO-31 and in the experiment with UACC-257 was > 100 µM (inactive) throughout.

As for `COc1cc2[nH]c(=O)c3cc(C)cc4c(Cl)nc(c1OC)c2c43`, the GI50 in the experiment with SF-268 was 20.4 µM (inactive); in the experiment on CCRF-CEM it was 27.9 µM (inactive); in the experiment with OVCAR-5 it was > 100 µM (inactive); in the experiment with NCI-H23, 85.5 µM (inactive); in the experiment on COLO 205, 72.6 µM (inactive); in the experiment on Malme-3M, 18 µM (inactive). Further, the GI50 is 42 µM (inactive) in the experiment with SNB-19; 37.9 µM (inactive) with SK-OV-3; 43.7 µM (inactive) in the experiment on SF-295; > 100 µM (inactive) in the experiment on HCC 2998; 45.7 µM (inactive) with NCI-H226; > 100 µM (inactive) with MDA-N. Also, the GI50 with SNB-75 was 22.9 µM (inactive); in the experiment on SK-MEL-5, 55.6 µM (inactive); in the experiment with UO-31, > 100 µM (inactive); with UACC-257, > 100 µM (inactive); with MDA-MB-231, 76.6 µM (inactive).

As for `C1CSCCSCCCSC2CCCCC2SC1` (stereo not given), the GI50 in the experiment on SF-268 was > 100 µM (inactive); with CCRF-CEM, > 100 µM (inactive); with OVCAR-5 it was > 100 µM (inactive); with NCI-H23 it was 80.5 µM (inactive); with COLO 205, 86.3 µM (inactive); with SN12C, > 100 µM (inactive). For the same compound, the GI50 in the experiment on SNB-19, in the experiment on SK-OV-3, in the experiment on SF-295, in the experiment on HCC 2998, in the experiment on MDA-N and with SNB-75 was > 100 µM (inactive) in each case. Moreover, the GI50 is 43.2 µM (inactive) in the experiment on SK-MEL-5, > 100 µM (inactive) in the experiment with UO-31, > 100 µM (inactive) in the experiment on UACC-257 and 60 µM (inactive) in the experiment with MDA-MB-231.

As for `CCOC(=O)N(c1ccccc1)c1cc(=O)n2ccccc2n1`, the GI50 in the experiment with SF-268, in the experiment on CCRF-CEM, in the experiment with OVCAR-5, in the experiment on NCI-H23, in the experiment on COLO 205 and in the experiment with SN12C was > 100 µM (inactive) throughout. Moreover, the GI50 in the experiment with Malme-3M, with SNB-19, in the experiment with SK-OV-3, in the experiment with SF-295, in the experiment with HCC 2998 and in the experiment on NCI-H226 was > 100 µM (inactive) in each case. In addition, the GI50 in the experiment with SNB-75, in the experiment with SK-MEL-5, in the experiment with UO-31, with UACC-257, with A498 and with MDA-MB-231 was > 100 µM (inactive) in each case.

For the compound `COc1cccc(-c2cc(O)c3cc(NC(C)=O)ccc3n2)c1`, the GI50 was 6.3 µM (inactive) in the experiment with SF-268; 5.6 µM (inactive) in the experiment on CCRF-CEM; 59.4 µM (inactive) in the experiment on OVCAR-5; 26.8 µM (inactive) in the experiment on NCI-H23; 22.4 µM (inactive) in the experiment with COLO 205; 78 µM (inactive) in the experiment on SN12C. Moreover, the GI50 is 5.05 µM (inactive) in the experiment with Malme-3M; 8.41 µM (inactive) in the experiment on SNB-19; > 100 µM (inactive) with SK-OV-3; > 100 µM (inactive) with HCC 2998; 14.6 µM (inactive) with SK-MEL-5; 71.6 µM (inactive) in the experiment with UO-31. Besides, the GI50 with UACC-257 is > 100 µM (inactive); in the experiment with A498 it was 17 µM (inactive); in the experiment with MDA-MB-231, 31.4 µM (inactive).

For the compound `c1csc(-c2csc(-c3cccs3)c2)c1`, the GI50 was 84.5 µM (inactive) in the experiment on SF-268; 49.2 µM (inactive) with CCRF-CEM; > 100 µM (inactive) with OVCAR-5; 24.3 µM (inactive) in the experiment with NCI-H23; 18 µM (inactive) with COLO 205; 34.2 µM (inactive) in the experiment with SN12C. Further, the GI50 with Malme-3M was 51.8 µM (inactive); with SNB-19, 32.4 µM (inactive); in the experiment on SK-OV-3, 95.9 µM (inactive); in the experiment with SF-295, 35.9 µM (inactive); in the experiment with HCC 2998, 48.5 µM (inactive); in the experiment on SNB-75 it was 50.5 µM (inactive). Further, the GI50 with SK-MEL-5 is 18.7 µM (inactive); with UO-31 it was 57.8 µM (inactive); with UACC-257, 40 µM (inactive); with A498, > 100 µM (inactive); in the experiment on MDA-MB-231, > 100 µM (inactive).

Regarding `COC(=O)c1c(O)ccc2c1c1c(n2Cc2ccc(OC)cc2)C(=O)c2ccccc2C1=O`, the GI50 was 12.4 µM (inactive) in the experiment with SF-268; 0.128 µM (active) in the experiment on CCRF-CEM; 25.4 µM (inactive) with OVCAR-5; 11 µM (inactive) with NCI-H23; 1.84 µM (inactive) in the experiment with COLO 205; 2.78 µM (inactive) in the experiment on SN12C. Moreover, the GI50 with Malme-3M is 39.9 µM (inactive); with SNB-19, 22.5 µM (inactive); in the experiment with SK-OV-3, 15.6 µM (inactive); with SF-295, 14.2 µM (inactive); with HCC 2998, 2.97 µM (inactive); in the experiment with NCI-H226, 10.4 µM (inactive). The GI50 with MDA-N was 12.5 µM (inactive); in the experiment on SNB-75, 15.1 µM (inactive); in the experiment with UO-31, 3.92 µM (inactive); with UACC-257, 26.3 µM (inactive); in the experiment with A498, 20.5 µM (inactive).

Consider `COC(=O)C1=C(O)C(C(=O)OC)[C@]2(O)[C@H](C(=O)OC)[C@H]1C[C@@H](c1ccc([N+](=O)[O-])cc1)[C@H]2C(=O)OC` (stereo not given in full), for which the GI50 in the experiment on SF-268 is 16.9 µM (inactive); with CCRF-CEM, 18 µM (inactive); with OVCAR-5, 25.2 µM (inactive); in the experiment with NCI-H23, 13.2 µM (inactive); with COLO 205, 25 µM (inactive); with SN12C, 18.1 µM (inactive). Moreover, the GI50 was 3.46 µM (inactive) in the experiment with Malme-3M; 19 µM (inactive) in the experiment with SNB-19; 27.8 µM (inactive) in the experiment on SK-OV-3; 28.5 µM (inactive) in the experiment on SF-295; 24.9 µM (inactive) with NCI-H226; 7.91 µM (inactive) in the experiment with MDA-N. The GI50 in the experiment with SNB-75 was 42.3 µM (inactive); in the experiment with SK-MEL-5, 15.3 µM (inactive); in the experiment with UACC-257, 34.1 µM (inactive); in the experiment with MDA-MB-231 it was 24.6 µM (inactive).

As for `CCCC(=O)Nc1ccc(O)c2c1C1CCCCCC21` (stereo not given), the GI50 with SF-268, in the experiment on CCRF-CEM, with NCI-H23, in the experiment with COLO 205, with SN12C and in the experiment on Malme-3M was > 100 µM (inactive) in each case. Also, the GI50 in the experiment on SNB-19 is > 100 µM (inactive); in the experiment on SK-OV-3, > 100 µM (inactive); in the experiment on SF-295, 50.2 µM (inactive); with NCI-H226 it was > 100 µM (inactive); with SNB-75 it was 72.3 µM (inactive); in the experiment with SK-MEL-5, 72.4 µM (inactive). The GI50 is 63.2 µM (inactive) with UO-31 and 46.7 µM (inactive) in the experiment on UACC-257.

Values taken from ChEMBL document CHEMBL1201862, “PubChem BioAssay data set” (2004).
